Laboratory results from ChEMBL document CHEMBL4368934, “Chemistry and biology of ophiobolin A and its congeners” (Bioorg Med Chem Lett, 2019).
In brackets after ≈: the same amount, converted by molar mass.

Experiments:
Plasmodium falciparum = test: Antimalarial activity against Plasmodium falciparum K1 by [3H]-hypoxanthine incorporation assay; assay type: functional, organism-based
[1] = test system: Mycobacterium tuberculosis; test: Antibacterial activity against Mycobacterium tuberculosis H37Ra by microplate alamar blue assay; assay type: functional, organism-based
[2] = Cytotoxicity against mouse P388/R cells after 72 hrs by MTT assay; assay type: functional, cell-based; details: P388, 72 h
[3] = test system: Panel NCI-60 (60 carcinoma cell lines); test: Cytotoxicity against human NCI60 cells; assay type: functional
[4] = Acute toxicity in iv dosed mouse; assay type: organism-based; details: in vivo
[5] = Acute toxicity in sc dosed mouse; assay type: organism-based; details: in vivo

C/C(=C\[C@H](O)[C@@H](O)[C@H](C)[C@H]1CC[C@@]2(C)C[C@@H]3[C@H](C)CC(=O)[C@@H]3/C(C=O)=C\C[C@H]12)C(=O)O
IC50 (Plasmodium falciparum): 13 µg/mL (≈ 30.1 µM)
IC50 [1]: 200 µg/mL (≈ 462 µM)

CC(C)=C/C=C/[C@H](C)C1=CC[C@]2(C)C[C@H]3[C@H](C(=O)C[C@@]3(C)O)/C(C=O)=C\C[C@@H]12
IC50 [2]: 270 to 650 nM

CC(C)=C[C@H]1C[C@H](C)[C@]2(CC[C@]3(C)C[C@H]4[C@H](C(=O)C[C@@]4(C)O)/C(C=O)=C\C[C@H]32)O1 [OPHIOBOLIN A]
GI50 [3]: 72 nM
CC50 ([3]; read-out: LC50 (the source's name)): 629 nM
LD50 [4]: 12 mg/kg
LD50 [5]: 238 mg/kg
